Experimental data from US20100173835A1, “Peptides for Treatment of Obesity” (Novo Nordisk A/S, priority 2008, published 2010).
Values after ≈ are worked out from the molar mass of the structure shown. Where two headings read alike, the source gives them in different places. Where a SMILES comes first, the peptide text is derived from it. Bridges are numbered along the chain shown (N, C = ends). [ ]: non-standard residue; d: D form. The star is where a group is joined. Palmitoyl(16-(5-tetrazolyl)) = O=C(CCCCCCCCCCCCCCCc1nnn[nH]1)*; Lys(CH2CO2H)2 = N[C@@H](CCCCN(CC(=O)O)CC(=O)O)C(=O)O; Hyp = O=C(O)[C@@H]1C[C@@H](O)CN1; Nle = CCCC[C@H](N)C(=O)O; AEEA = NCCOCCOCC(=O)O; βAla = NCCC(=O)O

Experiments:
[1] = Solubility data of compounds in water over the pH range; type: physicochemical; details: read-out: Conc (solubility in water)
ad libitum fed rat model = assay: Assay (I) efficacy testing on appetite, ad libitum fed rat model; type: in vivo; details: dosing 1 mg/kg
Experimental: Assay (I)—Experimental protocol for efficacy testing on appetite with MC4 analogues, using an ad libitum fed rat model. TAC:SPRD @mol rats or Wistar rats from M&B Breeding and Research Centre A/S, Denmark are used for the experiments. The rats have a body weight 200-250 g at the start of experiment. The rats arrive at least 10-14 days before start of experiment with a body weight of 180-200 g. Each dose of compound is tested in a group of 8 rats. […] When the animals arrive they are housed individually in a reversed light/dark phase (lights off 7:30 am, lights on 7:30 pm), meaning that lights are off during daytime and on during nighttime. […] During this period the animals are handled at least 3 times. The experiment is conducted in the rats' home cages. Immediately before dosing the rats are randomised to the various treatment groups (n 8) by body weight. They are dosed according to body weight at between 7:00 am and 7:45 am, with a 1-3 mg/kg solution administered intraperitoneally (ip), orally (po) or subcutaneously (sc). The time of dosing is recorded for each group. After dosing, the rats are returned to their home cages, where they then have access to food and water. […] At the end of the experimental session, the animals are euthanised. The individual data are recorded in Microsoft excel sheets. Outliers are excluded after applying the Grubbs statistical evaluation test for outliers, and the result is presented graphically using the GraphPad Prism program.

human MC4 receptor = target: T1, human MC4 receptor (Homo sapiens, UniProt P32245); assay: Assay (V) Melanocortin Receptor 4 (MC4) binding assay; details: Assay (V) MC4 [Ki] (nM), 125NDP-α-MSH binding, BHK cell membranes
T1 construct: expressed in transfected cells
Summary of the method: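 BHK membranes stably expressing human MC4 receptor were incubated with ^125NDP-α-MSH (≈79 pM final) and compound for 2 h at 25 °C, pH 7.0 HEPES buffer with HSA or ovalbumin. Filter-bound radioactivity was gamma counted. Binding curves were fitted by non-linear regression.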

MC1 receptor = target: T2, MC1 receptor (Homo sapiens, UniProt Q01726); assay: Assay (IV) Melanocortin Receptor 1 (MC1) binding assay
T2 construct: expressed in transfected cells
Summary of the method: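 Competition binding used BHK cell membranes stably expressing MC1 (25 μg/ml) with 22 pM final ^125NDP-α-MSH in 25 mM HEPES pH 7.4, CaCl2, MgSO4, EDTA, 0.1% HSA (or ovalbumin), 0.005% Tween 20. After 90 min at 30° C., bound radioligand was filtered and counted, with binding curves fitted by non-linear regression.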

T2 sequence (Q01726 whole entry): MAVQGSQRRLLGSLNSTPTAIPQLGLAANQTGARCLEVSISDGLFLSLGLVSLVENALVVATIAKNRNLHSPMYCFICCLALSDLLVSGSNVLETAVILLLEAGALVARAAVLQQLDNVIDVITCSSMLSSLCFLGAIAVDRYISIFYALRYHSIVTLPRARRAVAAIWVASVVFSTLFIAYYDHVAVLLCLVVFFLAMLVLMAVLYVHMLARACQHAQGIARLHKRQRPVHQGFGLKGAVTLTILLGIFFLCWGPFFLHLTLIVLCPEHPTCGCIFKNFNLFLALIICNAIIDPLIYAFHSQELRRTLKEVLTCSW
T1 sequence (P32245 whole entry): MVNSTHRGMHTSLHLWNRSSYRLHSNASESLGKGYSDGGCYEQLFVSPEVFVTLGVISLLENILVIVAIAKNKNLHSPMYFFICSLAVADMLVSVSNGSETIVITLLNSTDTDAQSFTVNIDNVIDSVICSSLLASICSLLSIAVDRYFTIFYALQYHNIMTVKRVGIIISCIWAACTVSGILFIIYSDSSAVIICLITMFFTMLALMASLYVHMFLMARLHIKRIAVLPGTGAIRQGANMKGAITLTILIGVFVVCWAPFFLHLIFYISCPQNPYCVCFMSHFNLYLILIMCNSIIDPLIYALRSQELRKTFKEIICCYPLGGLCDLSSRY

Molecule `CCCC[C@H](NC(=O)[C@H](CCCCN(CC(=O)O)CC(=O)O)NC(=O)CCNC(=O)[C@H](Cc1c[nH]cn1)NC(=O)[C@H](CCC(N)=O)NC(=O)[C@H](CO)NC(=O)[C@H](CO)NC(=O)[C@H](CCC(N)=O)NC(=O)[C@@H](CO)NC(=O)CNC(=O)COCCOCCNC(=O)COCCOCCNC(=O)CCCCCCCCCCCCCCCc1nnn[nH]1)C(=O)N[C@H]1CCC(=O)NCCCC[C@@H](C(N)=O)NC(=O)[C@H](Cc2c[nH]c3ccccc23)NC(=O)[C@H](CCCNC(=N)N)NC(=O)[C@@H](Cc2ccccc2)NC(=O)[C@@H]2C[C@@H](O)CN2C1=O` [Example 20, (2-{2-[2-(2-{2-[16-(Tetrazol-5-yl)hexadecanoylamino]ethoxy}ethoxy)acetylamino]ethoxy}ethoxy)acetyl-Gly-D-Ser-Gln-Ser-Ser-Gln-His-β-Ala-Lys(biscarboxymethyl)-Nle-c[Glu-Hyp-D-Phe-Arg-Trp-Lys]-NH2] ({Palmitoyl(16-(5-tetrazolyl))-AEEA-AEEA}-G[dS]QSSQH[βAla][Lys(CH2CO2H)2][Nle]E[Hyp][dF]RWK-NH2; lactam 11-16) has a solubility at 3 days ([1]; pH 2.94, pH 2.94) of 499 µM (≈ 1300 µg/mL), a solubility at 3 days ([1]; pH 4.37, pH 4.37) of 512 µM (≈ 1330 µg/mL) and a solubility at 3 days ([1]; pH 4.97, pH 4.97) of 406 µM (≈ 1050 µg/mL). For the same molecule, the solubility at 3 days ([1]; pH 5.4, pH 5.40) was 67 µM (≈ 174 µg/mL), the solubility at 3 days ([1]; pH 5.51, pH 5.51) was 56 µM (≈ 145 µg/mL) and the solubility at 3 days ([1]; pH 6.23, pH 6.23) was 53 µM (≈ 138 µg/mL). The solubility at 3 days ([1]; pH 6.91, pH 6.91) was 223 µM (≈ 579 µg/mL), the solubility at 3 days ([1]; pH 6.99) was 345 µM (≈ 896 µg/mL) and the solubility at 3 days ([1]; pH 7.23, pH 7.23) was 473 µM (≈ 1230 µg/mL). For the same molecule, the solubility at 3 days ([1]; pH 7.55, pH 7.55) was 452 µM (≈ 1170 µg/mL), the “Food consumption (% of vehicle) 24 h” value (ad libitum fed rat model; 1 mg/kg) was 61 % of vehicle and the “Food consumption (% of vehicle) 48 h” value (ad libitum fed rat model; 1 mg/kg) was 72 % of vehicle. The Ki (human MC4 receptor) was 4.55 nM and the Ki (MC1 receptor) was > 10000 nM.
Molecule `CCCC[C@H](NC(=O)[C@H](CCCCN(CC(=O)O)CC(=O)O)NC(=O)[C@H](CO)NC(=O)[C@H](CCC(N)=O)NC(=O)[C@H](CO)NC(=O)CNC(=O)COCCOCCNC(=O)CCCCCCCCCCCCCCCc1nnn[nH]1)C(=O)N[C@H]1CCC(=O)NCCCC[C@@H](C(N)=O)NC(=O)[C@H](Cc2c[nH]c3ccccc23)NC(=O)[C@H](CCCNC(=N)N)NC(=O)[C@@H](Cc2ccccc2)NC(=O)[C@@H]2C[C@@H](O)CN2C1=O` [Example 5, (2-{2-[16-(Tetrazol-5-yl)hexadecanoylamino]ethoxy}ethoxy)acetyl-Gly-Ser-Gln-Ser-Lys(biscarboxymethyl)-Nle-c[Glu-Hyp-D-Phe-Arg-Trp-Lys]-NH2] ({Palmitoyl(16-(5-tetrazolyl))-AEEA}-GSQS[Lys(CH2CO2H)2][Nle]E[Hyp][dF]RWK-NH2; lactam 7-12) has a solubility at 3 days ([1]; pH 4.22, pH 4.22) of 20 µM (≈ 40.5 µg/mL), a solubility at 3 days ([1]; pH 4.55, pH 4.55) of 21 µM (≈ 42.6 µg/mL) and a solubility at 3 days ([1]; pH 5.1, pH 5.10) of 25 µM (≈ 50.7 µg/mL). For the same molecule, the solubility at 3 days ([1]; pH 5.23, pH 5.23) was 30 µM (≈ 60.8 µg/mL), the solubility at 3 days ([1]; pH 5.97, pH 5.97) was 129 µM (≈ 262 µg/mL) and the solubility at 3 days ([1]; pH 6.29, pH 6.29) was 239 µM (≈ 485 µg/mL). The solubility at 3 days ([1]; pH 6.68, pH 6.68) was 244 µM (≈ 495 µg/mL), the solubility at 3 days ([1]; pH 7.03, pH 7.03) was 245 µM (≈ 497 µg/mL) and the solubility at 3 days ([1]; pH 7.04, pH 7.04) was 251 µM (≈ 509 µg/mL). For the same molecule, the “Food consumption (% of vehicle) 24 h” value (ad libitum fed rat model) was 81 % of vehicle, the “Food consumption (% of vehicle) 48 h” value (ad libitum fed rat model) was 91 % of vehicle and the Ki (human MC4 receptor) was 7.55 nM. For the same molecule, the Ki (MC1 receptor) was > 10000 nM.
